This is an account of results in paper PMC13236579, “Synthesis of aryl-fused bicyclo[3.1.1]heptanes and validation as naphthyl bioisosteres” (Nature Chemistry, 2026).

Data set [1] is described as follows: Kinetic solubility assay in phosphate buffer. It is filed as physicochemical. The settings on record: aqueous buffer, kinetic from dmso stock, 50 mM PB (pH 7.4), room temperature. How it is done: A 50 mM phosphate buffer (pH 7.4) was prepared by mixing 50 mM Na₂HPO₄ (3.549 g in 500 mL H₂O, pH ≈ 9.4) and 50 mM NaH ₂PO₄ (3.000 g in 500 mL H₂O, pH ≈ 4.5). To obtain the working buffer, 15 mL of Na₂HPO₄ solution was transferred into a 50 mL tube and adjusted to pH 7.4 ± 0.05 with 50 mM NaH₂PO₄. For solubility determination, 10 µL of compound stock solution was added to each well of a 96 -well plate, followed by 490 µL of buffer. Samples were vortexed for 2 min, shaken at 70 x g for 24 h at room temperature, and then centrifuged at 25 °C for 10 min (1800 x g). Supernatants were filtered through MultiScreen® Solvinert plates (Millipore/Merck) by centrifugation (≥ 5 min) and collected into a fresh 96 -well plate. Filtrate concentrations were quantified by LC-UV using an ACQUITY UPLC BEH C18 (1.7 µm, 50 mm) column with Mobile Phase A (0.1% TFA, 5 mM NH ₄OAc in H₂O/ACN 95:5 v/v) and Mobile Phase B (0.1% TFA, 5 mM NH ₄OAc in H₂O/ACN 5:95 v/v). […]
Compound ID Batch Media Kinetic Solubility Kinetic Solubility

The nature of data set [2]: Metabolic stability in mouse liver microsomes (MLM) with or without ANF. It is filed as in vitro ADME. The settings on record: for half-life at 1 μM / microsomal CLint at 1 μM: CD-1, mouse, liver microsomes, 1 μM compound; for microsomal CLint at 1 μM: read-out: CLint(mic). The protocol: Finally, we subjected the most promising derivatives to metabolic stability studies in mouse liver microsomes (MLMs), a validated model for understanding phase I metabolism of drugs (Table 1). To investigate whether the analogues would be susceptible to CYPs metabolism, we repeated these tests in the presence of 3 μM α-naphthoflavone (ANF). ANF is a well-known inhibitor of CYP1A enzymes, which is responsible for the CYP oxidative metabolism of naphthalene ring in ezutromid. […] These findings support the strategy that BCHep substitution mitigates the metabolic liabilities associated with ezutromid, by both preserving metabolic stability and avoiding CYP1A-mediated metabolism. [table] page 148: Fig.S178. […] Data have been obtained by RT-qPCR, and analysed using the 2-∆∆Ct method. Values obtained have been normalized to control (DMSO 1%), and presented as Mean + SEM (n=4). Statistical analysis was performed using the Ordinary One-way ANOVA followed by Dunnett’s multiple comparisons test against Vehicle Control: **: p < 0.005; ****: p < 0.0001 (grey). Metabolic stability Metabolic stability of compounds was assessed in Mouse Liver Microsomes (MLM) by WuxiAppTech (Shangai, China). Briefly, ACN solutions of test compounds ( 50a-c, i.a concentration 1μM) were dispensed in duplicate in a 96-well plate using an Apricot automation workstation. A solution of MLM (CD-1 Mouse, RILD, Cat. number LM-XS-02M) in PBS, with or without ANF, was added to each compound and plates were incubated at 37°C for 10 minutes. Reactions were then initiated by adding NADPH (i.a. 1mM, 0.5mM MgCl2) an d […] performed by adding stop solution before activating the reaction). NADPH -independent metabolism was assessed for each condition by replacing NADPH solution with PBS b uffer. Phenacetine, diclofenac and propafenone were used as controls. After proper incubation time, reaction was stopped by addition of ice -cold ACN and the plates were sealed, shaken and centrifuged at 1800 x g and 4°C for 20 minutes. The supernatant was then subjected to LC/MS-MS analysis for residual drug quantitation using 250 nM tolbutamide and 250 nM labetalol as internal standards. Half-life (t1/2) and CLint (Intrinsic clearance) were calculated using standard pharmacokinetic calculations based on the decay of drug concentration over time. […] The test compound 50b at 10 µM was incubated with liver microsomes in the presence of NADPH at […] The positive control, 7-ethoxycoumarin (7-EC) at 10 µM, was run concurrently to 147 (1 picture or pasted object on this page, not shown here)
For orientation: Liver microsomes are a subcellular fraction often used to study metabolism.

For data set [3], the target named is T1, aryl hydrocarbon receptor (AhR) (Homo sapiens, UniProt P35869).
T1 construct: Human hepatocellular carcinoma (HepG2) cell lines were acquired from Abcam; host or cells: HepG2 (human hepatocellular carcinoma)
T1 sequence (P35869 11-848): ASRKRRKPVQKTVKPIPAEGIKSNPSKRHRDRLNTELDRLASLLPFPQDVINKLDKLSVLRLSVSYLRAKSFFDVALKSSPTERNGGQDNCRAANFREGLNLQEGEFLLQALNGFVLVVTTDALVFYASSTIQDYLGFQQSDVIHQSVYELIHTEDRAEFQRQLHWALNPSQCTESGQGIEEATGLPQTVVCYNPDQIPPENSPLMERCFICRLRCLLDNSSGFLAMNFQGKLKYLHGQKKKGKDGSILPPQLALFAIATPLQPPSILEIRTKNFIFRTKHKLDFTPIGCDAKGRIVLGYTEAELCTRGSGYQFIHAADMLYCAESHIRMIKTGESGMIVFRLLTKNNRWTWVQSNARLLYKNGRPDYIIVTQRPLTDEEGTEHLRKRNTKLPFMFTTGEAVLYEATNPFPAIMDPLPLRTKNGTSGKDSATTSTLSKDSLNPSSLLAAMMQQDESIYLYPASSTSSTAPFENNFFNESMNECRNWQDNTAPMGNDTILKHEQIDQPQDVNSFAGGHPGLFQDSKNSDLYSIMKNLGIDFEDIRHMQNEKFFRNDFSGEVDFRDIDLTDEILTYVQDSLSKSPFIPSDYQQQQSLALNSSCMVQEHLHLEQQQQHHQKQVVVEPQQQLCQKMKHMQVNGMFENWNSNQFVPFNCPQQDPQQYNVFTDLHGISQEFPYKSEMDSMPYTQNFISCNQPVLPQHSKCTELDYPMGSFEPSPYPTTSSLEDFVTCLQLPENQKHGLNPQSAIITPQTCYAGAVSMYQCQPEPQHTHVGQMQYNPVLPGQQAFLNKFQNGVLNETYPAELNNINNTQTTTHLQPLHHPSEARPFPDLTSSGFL
In words: AhR antagonism: CYP1A1 mRNA levels in HepG2 cells by RT-qPCR. It is filed as cell-based. As to conditions: HepG2, 4 h incubation, 2^-ΔΔCt, normalized to DMSO control. The text has this:
To this aim, we decided to measure the activity of ezutromid and the analogues against ezutromid's primary target, which has recently been identified as the aryl hydrocarbon receptor (AhR)[40]. This nuclear transcription factor plays a pivotal role in the metabolism of exogenous small molecules by targeting nuclear DNA to upregulate the expression of several isoforms of CYP enzymes responsible for the phase I metabolism of drugs, such as CYP1A isoforms (Fig. 5a). Therefore, AhR inhibition can be monitored by measuring the relative expression of these genes, with lower CYP1A1 mRNA levels being proportional to AhR antagonism.  Fig. 5 AhR antagonism and biological evaluation of BCHep analogues. a, A schematic representation of how ezutromid antagonizes AhR preventing its translocation into the nuclei and its subsequent upregulation of CYP1A1 enzyme. The inhibition of AhR can therefore be evaluated as a decrease in CYP1A1 expression. b, The evaluation of 50a-c as AhR antagonists compared with ezutromid. Data have been obtained by quantitative RT-qPCR and analysed using the 2^-ΔΔCt method. Values obtained have been normalized to control (DMSO 1%) and presented as mean + s.e.m. The IC50 values were determined from biological triplicates, except for compounds 50c and ezutromid, which were measured from duplicate experimental replicates.
A general note: In qPCR the cycle at which signal appears reflects the starting amount.

Data set [4] is described as follows: MetID of 50b in liver microsomes (LC-UV-MS). In kind it is in vitro ADME, human. How it is done: Fig.S178. Evaluation of 50a-c as AhR antagonists compared to Ezutromid. Data have been obtained by RT-qPCR, and analysed using the 2-∆∆Ct method. Values obtained have been normalized to control (DMSO 1%), and presented as Mean + SEM (n=4). Statistical analysis was performed using the Ordinary One-way ANOVA followed by Dunnett’s multiple comparisons test against Vehicle Control: **: p < 0.005; ****: p < 0.0001 (grey).
Metabolic stability of compounds was assessed in Mouse Liver Microsomes (MLM) by WuxiAppTech (Shangai, China). Briefly, ACN solutions of test compounds ( 50a-c, i.a concentration 1μM) were dispensed in duplicate in a 96-well plate using an Apricot automation workstation. […] NADPH -independent metabolism was assessed for each condition by replacing NADPH solution with PBS b uffer. […]
After proper incubation time, reaction was stopped by addition of ice -cold ACN and the plates were sealed, shaken and centrifuged at 1800 x g and 4°C for 20 minutes. The supernatant was then subjected to LC/MS-MS analysis for residual drug quantitation using 250 nM tolbutamide and 250 nM labetalol as internal standards. Half-life (t1/2) and CLint (Intrinsic clearance) were calculated using standard pharmacokinetic calculations based on the decay of drug concentration over time. […]
incubation system was reliable for metabolic study. After incubation, the samples were analyzed by LC - UV-MS. […]

In the next data set the test system is utrophin. Details: method as in doi:10.1080/21678707.2018.1438261. The settings on record: patients with DMD, cited from earlier work.
Setting [5] is: with α-naphthoflavone (ANF, CYP1A inhibitor) 3 μM, with 3 μM ANF (CYP1A inhibitor).
The mark [6] stands for this setting: with α-naphthoflavone (ANF, CYP1A inhibitor) 3 μM, with 3 μM ANF.

Several values for one entry are separate records, joined by “and”; a condition that tells them apart may be missing. Equal values may be shown once. Read-outs that look alike come from different tables or passages of the source.

With `CCS(=O)(=O)c1ccc2oc(C34Cc5ccccc5C(C3)C4)nc2c1` [50a], in data set [1], the solubility (kinetic) at 24 h is < 1.56 µM and < 0.552 µg/mL. The “increase in metabolic half-life compared with ezutromid” value in data set [2] is reported as ~ 2 fold. Also, the half-life at 1 μM in data set [2] (without ANF) stood at 94 ± 0.2 min; in data set [2] (setting [5]) it was 108 ± 11 min. For the same compound, the microsomal CLint at 1 μM in data set [2] (without ANF) was found to be 14.7 ± 0.1 µL/min/mg; in data set [2] (setting [6]), 12.8 ± 1.4 µL/min/mg. The 50% inhibitory concentration (IC50) in data set [3] was 19 ± 18 µM.
With `CCS(=O)(=O)c1ccc2oc(-c3ccc4c(c3)CC3CC4C3)nc2c1` [50b], the “Relative Abundance (UV Peak Area %Total)” value in data set [4] (50b at 10 µM, human liver microsomes, NADPH, 37°C, 60 min) is 66.02%. Besides, the predominant biotransformation result in data set [4] (metabolic profiling of 50b) was “mono-oxygenation of the BCHep moiety”. Besides, in data set [1], the solubility (kinetic) at 24 h was < 1.56 µM and < 0.552 µg/mL. Besides, the “half-life compared with ezutromid” value in data set [2] is on record as “slight decrease”. The values for the half-life at 1 μM in data set [2] (without ANF) and in data set [2] (setting [5]) were 40 ± 7 min and 42 ± 4 min, respectively. Further, the microsomal CLint at 1 μM in data set [2] (without ANF) came out at 35.6 ± 7 µL/min/mg; in data set [2] (setting [6]), 33.6 ± 2.7 µL/min/mg. Also, half-maximal inhibition in data set [3] (IC50) was put at 2.12 ± 0.3 µM.
As to `CCS(=O)(=O)c1ccc2oc(-c3ccc4c(c3)C3CC(C4)C3)nc2c1` [50c], the half-life at 1 μM in data set [2] (without ANF) is 48 ± 8 min; in data set [2] (setting [5]) it was 56 ± 10 min. For the same compound, the microsomal CLint at 1 μM in data set [2] (without ANF) is 29.9 ± 4.9 µL/min/mg; in data set [2] (setting [6]) it was 25.7 ± 4.6 µL/min/mg. For the same compound, the IC50 in data set [3] was 13.1 ± 2 µM.
Consider `CCS(=O)(=O)c1ccc2oc(-c3ccc4ccccc4c3)nc2c1` [Ezutromid, ezutromid, reference compound], for which, in data set [1], the kinetic solubility at 24 h is < 1.56 µM and < 0.527 µg/mL. The half-life at 1 μM worked out at 60 ± 5 min in data set [2] (without ANF) and 89 ± 6 min in data set [2] (setting [5]). The results for the microsomal CLint at 1 μM in data set [2] (without ANF) and in data set [2] (setting [6]) were 23.3 ± 2 µL/min/mg and 15.8 ± 1.1 µL/min/mg, respectively. This compound also displayed an IC50 in data set [3] of 0.27 µM. In the data set on utrophin (after 48 weeks of treatment), the “primary or secondary end points” value was “failed to meet”. Also, the levels of utrophin entry with utrophin (repeated dosing, 24-week data) is listed as “increased”. The muscle fibre damage result in the data set with utrophin (repeated dosing, 24-week data) is on record as “statistically significant reduction”.

For orientation: kinetic solubility means the concentration staying in solution when a stock, usually in DMSO, is diluted into the medium. Broadly, the half-life is how long it takes for the measured level to halve. What is called IC50 is the concentration at which inhibition is half-maximal. A low value points to greater potency in that assay.
